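Cultured in 96-well plates, cells were exposed to test compound for 48 hours across five concentrations. TGI marks complete inhibition of growth.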
Tests used:
Assay in all cases: growth of human tumour cells (NCI), 48 h
XF 498 CNS = system: XF 498 CNS
KM20L2 colon = system: KM20L2 colon
DMS 273 small cell lung = system: DMS 273 small cell lung
DLD-1 colon = system: DLD-1 colon
M19-MEL melanoma = system: M19-MEL melanoma
SNB-78 CNS = system: SNB-78 CNS
DMS 114 small cell lung = system: DMS 114 small cell lung
HOP-62 NSCLC = system: HOP-62 NSCLC
LXFL 529 NSCLC = system: LXFL 529 NSCLC
BT-549 breast = system: BT-549 breast
MDA-MB-231 breast = system: MDA-MB-231 breast
DU-145 prostate = system: DU-145 prostate
MDA-MB-435 = system: MDA-MB-435
T-47D breast = system: T-47D breast

Structure (SMILES) | TGI (XF 498 CNS) | TGI (KM20L2 colon) | TGI (DMS 273 small cell lung) | TGI (DLD-1 colon) | TGI (M19-MEL melanoma) | TGI (SNB-78 CNS) | TGI (DMS 114 small cell lung) | TGI (HOP-62 NSCLC) | TGI (LXFL 529 NSCLC) | TGI (BT-549 breast) | TGI (MDA-MB-231 breast) | TGI (DU-145 prostate) | TGI (MDA-MB-435) | TGI (T-47D breast)
c1cnn(CN(Cn2cccn2)Cn2cccn2)c1 | > 100 µM | > 100 µM | > 100 µM | > 100 µM | > 100 µM | > 100 µM | > 100 µM | > 100 µM | – | – | – | – | – | –
O=C(CCc1nc(=S)[nH][nH]1)Nc1ccccc1Cl | > 100 µM | > 100 µM | > 100 µM | > 100 µM | > 100 µM | > 100 µM | > 100 µM | > 100 µM | > 100 µM | – | – | – | – | –
COC(=O)C(Cc1nc2ccccc2[nH]c1=O)C(NO)C(=O)Nc1c(Cl)cc([N+](=O)[O-])cc1Cl (configuration not stated) | – | – | – | > 100 µM | – | > 100 µM | 54.8 µM | > 100 µM | – | – | – | – | – | –
CC(=O)O[C@H]1CCC2[C@@H]3CC[C@]4(C)CC(=O)C=C[C@]4(C)C3CC[C@@]21C (some centres not stated) | – | 43.5 µM | 31.7 µM | 56.9 µM | 34.7 µM | 22.3 µM | 24.2 µM | 97.9 µM | 28 µM | 32.1 µM | 77.9 µM | > 100 µM | 94.7 µM | –
O=C(O)CNS(=O)(=O)c1ccc(NC(=O)c2ccc([N+](=O)[O-])cc2)cc1 | > 100 µM | > 100 µM | > 100 µM | > 100 µM | > 100 µM | – | – | – | > 100 µM | – | – | – | – | –
CCCN(CCC)C(=O)c1c([N+](=O)[O-])cc(C(F)(F)F)cc1[N+](=O)[O-] | – | 53.7 µM | > 100 µM | – | 27 µM | > 100 µM | – | > 100 µM | > 100 µM | – | – | – | – | –
CN(C)CCC1(C2=CCCC2)CC/C(=C\c2ccc(Cl)cc2)C1=O (configuration not stated) | 19.1 µM | 7.82 µM | 24.8 µM | 20.6 µM | 13.3 µM | 26.9 µM | 21.8 µM | 32.7 µM | 21.4 µM | – | – | – | – | –
CCCCCCCCCCCCCCCC(=O)OCC(C[As](=O)(O)O)OC(=O)CCCCCCCCCCCCCCC (configuration not stated) | 70.9 µM | > 100 µM | > 100 µM | > 100 µM | > 100 µM | 80.8 µM | > 100 µM | > 100 µM | > 100 µM | > 100 µM | > 100 µM | – | > 100 µM | > 100 µM
O=C(c1cccc2ccccc12)N1CCC(C2CCN(C(=O)c3cccc4ccccc34)CC2)CC1 | > 100 µM | > 100 µM | > 100 µM | > 100 µM | > 100 µM | > 100 µM | > 100 µM | > 100 µM | > 100 µM | – | – | – | – | –
CCOC(=O)C1SC(=Nc2ccc(C)c(C)c2)N=C1C (configuration not stated) | > 100 µM | > 100 µM | > 100 µM | > 100 µM | > 100 µM | – | > 100 µM | > 100 µM | > 100 µM | – | – | – | – | –
CNC(=S)/N=C(\N)N(C)C | > 100 µM | > 100 µM | > 100 µM | > 100 µM | > 100 µM | > 100 µM | > 100 µM | > 100 µM | > 100 µM | – | – | – | – | –
COC(=O)[C@@]12C(=O)C=CC(=O)C1C1C(=CC2C)OC2OC3(CCCCC3)OC21 (some centres not stated) | – | 38.4 µM | 36.2 µM | 35.7 µM | 35.1 µM | 42.3 µM | 31.4 µM | 35.8 µM | 26.3 µM | – | – | – | – | –
COc1cc2[nH]c3c(c2cc1OC)CCN[C@]31CC[C@]2(CC3c4c(cc(OC)c(O)c42)CCN3C)C[C@H]1OC (some centres not stated) | 29.8 µM | 60.5 µM | 4.46 µM | 81 µM | 32.9 µM | 60.4 µM | 31.4 µM | 48 µM | 61 µM | – | – | – | – | –
O=C1c2ccccc2C(=O)C1(O)c1c[nH]c2ccccc12 | > 100 µM | > 100 µM | – | > 100 µM | > 100 µM | > 100 µM | > 100 µM | > 100 µM | > 100 µM | – | – | – | – | –
CCCCNC1CCCCC[C@H]1O (some centres not stated) | – | > 100 µM | > 100 µM | > 100 µM | > 100 µM | > 100 µM | > 100 µM | > 100 µM | > 100 µM | – | – | – | – | –
O=C1C2C3C=C4c5ccccc5N(c5ccccc5)C4(C2C(=O)N1c1ccc([N+](=O)[O-])cc1)[C@H]1C(=O)N(c2ccc([N+](=O)[O-])cc2)C(=O)[C@@H]31 (some centres not stated) | – | > 100 µM | > 100 µM | > 100 µM | > 100 µM | > 100 µM | > 100 µM | > 100 µM | – | – | – | – | – | –
Cc1nnc(NS(=O)(=O)c2ccc(N=Nc3cc(N=Nc4ccc(S(=O)(=O)Nc5nnc(C)s5)cc4)c4c(NC(=O)C(Cl)Cl)cccc4c3OC(=O)C(Cl)Cl)cc2)s1 (tested in a mixture with another compound) | 92.9 µM | > 100 µM | 39.8 µM | 42.9 µM | 57.2 µM | > 100 µM | 62.5 µM | > 100 µM | > 100 µM | – | – | – | – | –
C=C(C)CCN[Si](c1ccccc1)(c1ccccc1)C(C)(C)C | 40.9 µM | 35.3 µM | 37.6 µM | – | 38 µM | 79 µM | 51.3 µM | 31.4 µM | – | – | – | – | – | –
Cc1[nH]c(=O)nc2[nH][nH]c(=O)c12 | – | – | – | – | > 100 µM | – | > 100 µM | > 100 µM | > 100 µM | – | – | – | – | –
CCOC(=O)CCC(=O)C1c2cccc(O)c2C(=O)c2c(O)cc(C)cc21 (configuration not stated) | 0.52 µM | 3.51 µM | 2.13 µM | 3.58 µM | 1.31 µM | 1.9 µM | 0.8 µM | 2.21 µM | 1.75 µM | – | – | – | – | –
